Measured values from patent publication US9440982B2 (Eolas Therapeutics, Inc., priority 2012, dated 2016).

These compounds were tested against T1, CYP3A4 (Homo sapiens, UniProt P08684) (assay: Cytochrome P450 inhibition assay (midazolam hydroxylation)). Settings: human, human liver microsomes, probe midazolam (hydroxylation to 1′-hydroxymidazolam), 10 μM test compound, midazolam at approximately its Km.
T1 construct: pre-incubated with human liver microsomes and NADPH; from tissue; host or cells: human liver microsomes
Assay type: in vitro ADME
Protocol: Compounds were tested for the potential to induce drug-drug interactions by inhibition of the cytochrome P450 3A4 isoform. The assay evaluated the metabolism of a specific marker substrate (CYP3A4, midazolam hydroxylation to 1′-hydroxymidazolam) in the presence or absence of 10 μM test compound. The concentration of the marker substrate was approximately its Km (Dixit et al., Biopharm. Drug Dispos. 2007, 28(5), 257-262). A specific inhibitor for the isoform was included in each run to validate the system. An appropriate positive control inhibitor was used. Mechanism-based inhibition was investigated where warranted using a classical method. To evaluate time-dependent inhibition, parallel samples may have been included where […] was pre-incubated with human liver microsomes and NADPH for 30 min prior to the addition of the P450 substrate. The percent inhibition of the pre-incubated and non-pre-incubated samples were compared as a preliminary evaluation of time-dependent inhibition.

T1 sequence (P08684 whole entry): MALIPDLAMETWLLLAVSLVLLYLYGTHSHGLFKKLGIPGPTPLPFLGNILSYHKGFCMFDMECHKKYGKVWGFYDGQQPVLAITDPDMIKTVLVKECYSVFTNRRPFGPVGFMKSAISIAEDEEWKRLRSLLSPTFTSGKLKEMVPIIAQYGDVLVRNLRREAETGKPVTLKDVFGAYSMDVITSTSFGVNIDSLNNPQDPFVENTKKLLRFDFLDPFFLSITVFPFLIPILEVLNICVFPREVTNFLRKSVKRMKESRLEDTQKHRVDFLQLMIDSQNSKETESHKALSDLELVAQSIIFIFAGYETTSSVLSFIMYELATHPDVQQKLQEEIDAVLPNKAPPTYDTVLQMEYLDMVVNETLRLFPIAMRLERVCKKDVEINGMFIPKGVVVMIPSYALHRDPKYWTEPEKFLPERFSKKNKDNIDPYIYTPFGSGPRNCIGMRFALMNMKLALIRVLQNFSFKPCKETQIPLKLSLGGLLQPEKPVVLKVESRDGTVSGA

| SMILES | inhibition at 10 µM [%] |
| --- | --- |
| Cc1ccc(-c2cnn(C)c2)c(C(=O)N2CCC[C@@H](C)[C@H]2CNc2nnc(C(F)(F)F)s2)c1 [Example A103, ((2S,3R)-3-Methyl-2-(((5-(trifluoromethyl)-1,3,4-thiadiazol-2-yl)amino)methyl)piperidin-1-yl)(5-methyl-2-(1-methyl-1H-pyrazol-4-yl)phenyl)methanone] | 95 |
| Cc1ccc(-c2cnn(C)c2)c(C(=O)N2CCC[C@@H](C)[C@H]2CNc2ccc(Cl)cn2)c1 [Example A105, ((2S,3R)-2-(((5-Chloropyridin-2-yl)amino)methyl)-3-methylpiperidin-1-yl)(5-methyl-2-(1-methyl-1H-pyrazol-4-yl)phenyl)methanone] | 96 |
| Cc1ccc(-n2ccc(C)n2)c(C(=O)N2CCC[C@@H](C)[C@H]2CNc2ccc(C(F)(F)F)cn2)c1 [Example A108, ((2S,3R)-3-Methyl-2-(((5-(trifluoromethyl)pyridin-2-yl)amino)methyl)piperidin-1-yl)(5-methyl-2-(3-methyl-1H-pyrazol-1-yl)phenyl)methanone] | 88 |
| Cc1ccc(-n2cc(C)nn2)c(C(=O)N2CCC[C@@H](C)[C@H]2CNc2ccc(C(F)(F)F)cn2)c1 [Example A113, ((2S,3R)-3-Methyl-2-(((5-(trifluoromethyl)pyridin-2-yl)amino)methyl)piperidin-1-yl)(5-methyl-2-(4-methyl-1H-1,2,3-triazol-1-yl)phenyl)methanone] | 98 |
| COc1ccc(NC[C@@H]2[C@H](C)CCCN2C(=O)c2cc(C)ccc2-n2nccn2)nc1 [Example A126, ((2S,3R)-2-(((5-Methoxypyridin-2-yl)amino)methyl)-3-methylpiperidin-1-yl)(5-methyl-2-(2H-1,2,3-triazol-2-yl)phenyl)methanone] | 56 |
| Cc1ccc(-c2ccccn2)c(C(=O)N2CCC[C@@H](C)[C@H]2CNc2nc3cc(F)ccc3o2)c1 [Example A128, ((2S,3R)-2-(((5-Fluorobenzo[d]oxazol-2-yl)amino)methyl)-3-methylpiperidin-1-yl)(5-methyl-2-(pyridin-2-yl)phenyl)methanone] | 88 |
| Cc1ccc(-n2ccc(C)n2)c(C(=O)N2CCC[C@@H](C)[C@H]2CNc2ncc(C#N)cn2)c1 [Example A131, 2-((((2S,3R)-3-Methyl-1-(5-methyl-2-(3-methyl-1H-pyrazol-1-yl)benzoyl)piperidin-2-yl)methyl)amino)pyrimidine-5-carbonitrile] | 84 |
| Cc1ccc(-n2nccn2)c(C(=O)N2CCC[C@@H](C)[C@H]2CNc2ccc(C3CC3)cn2)c1 [Example A136, ((2S,3R)-2-(((5-Cyclopropylpyridin-2-yl)amino)methyl)-3-methylpiperidin-1-yl)(5-methyl-2-(2H-1,2,3-triazol-2-yl)phenyl)methanone] | 91 |
| Cc1ccc(-n2ncc(C)n2)c(C(=O)N2CCC[C@@H](C)[C@H]2CNc2nc3cc(F)ccc3o2)c1 [Example A141, ((2S,3R)-2-(((5-Fluorobenzo[d]oxazol-2-yl)amino)methyl)-3-methylpiperidin-1-yl)(5-methyl-2-(4-methyl-2H-1,2,3-triazol-2-yl)phenyl)methanone] | 72 |
| Cc1ccc(-c2ccccn2)c(C(=O)N2CCC[C@@H](C)[C@H]2CNc2nnc(C(F)(F)F)s2)c1 [Example A151, ((2S,3R)-3-Methyl-2-(((5-(trifluoromethyl)-1,3,4-thiadiazol-2-yl)amino)methyl)piperidin-1-yl)(5-methyl-2-(pyridin-2-yl)phenyl)methanone] | 86 |
| Cc1ccc(-n2nccn2)c(C(=O)N2CCC[C@@H](C)[C@H]2CNc2nccc(C(F)(F)F)n2)c1 [Example A163, ((2S,3R)-3-Methyl-2-(((4-(trifluoromethyl)pyrimidin-2-yl)amino)methyl)piperidin-1-yl)(5-methyl-2-(2H-1,2,3-triazol-2-yl)phenyl)methanone] | 90 |
| Cc1ccc(-c2ccccn2)c(C(=O)N2CCC[C@@H](C)[C@H]2CNc2ccc(C(F)(F)F)nn2)n1 [Example A165, ((2S,3R)-3-methyl-2-(((6-(trifluoromethyl)pyridazin-3-yl)amino)methyl)piperidin-1-yl)(6′-methyl-[2,3′-bipyridin]-2′-yl)methanone] | 42 |
| Cc1ccc(-n2cccn2)c(C(=O)N2CCC[C@@H](C)[C@H]2CNc2ncc(F)cn2)c1 [Example A170, ((2S,3R)-2-(((5-Fluoropyrimidin-2-yl)amino)methyl)-3-methylpiperidin-1-yl)(5-methyl-2-(1H-pyrazol-1-yl)phenyl)methanone] | 66 |
| Cc1ccc(-n2nccn2)c(C(=O)N2CCC[C@@H](C)[C@H]2CNc2ccc(Cl)cn2)n1 [Example A178, ((2S,3R)-2-(((5-Chloropyridin-2-yl)amino)methyl)-3-methylpiperidin-1-yl)(6-methyl-3-(2H-1,2,3-triazol-2-yl)pyridin-2-yl)methanone] | 64 |
| Cc1ccc(-c2ncccn2)c(C(=O)N2CCC[C@@H](C)[C@H]2CNc2ccc(C(F)(F)F)cn2)n1 [Example A183, ((2S,3R)-3-Methyl-2-(((5-(trifluoromethyl)pyridin-2-yl)amino)methyl)piperidin-1-yl)(6-methyl-3-(pyrimidin-2-yl)pyridin-2-yl)methanone] | 49 |
| Cc1ccc(NC[C@@H]2[C@H](C)CCCN2C(=O)c2nc(C)ccc2-n2nccn2)nc1 [Example A196, ((2S,3R)-3-Methyl-2-(((5-methylpyridin-2-yl)amino)methyl)piperidin-1-yl)(6-methyl-3-(2H-1,2,3-triazol-2-yl)pyridin-2-yl)methanone] | 50 |

Next, values leading:

| inhibition at 10 µM [%] | SMILES |
| --- | --- |
| 48 | Cc1ccc(-n2nccn2)c(C(=O)N2CCC[C@@H](C)[C@H]2CNc2nnc(C(F)(F)F)s2)c1 [Example A102, ((2S,3R)-3-Methyl-2-(((5-(trifluoromethyl)-1,3,4-thiadiazol-2-yl)amino)methyl)piperidin-1-yl)(5-methyl-2-(2H-1,2,3-triazol-2-yl)phenyl)methanone] |
| 91 | Cc1ccc(-c2cccc(C)n2)c(C(=O)N2CCC[C@@H](C)[C@H]2CNc2ccc(C(F)(F)F)cn2)c1 [Example A104, ((2S,3R)-3-Methyl-2-(((5-(trifluoromethyl)pyridin-2-yl)amino)methyl)piperidin-1-yl)(5-methyl-2-(6-methylpyridin-2-yl)phenyl)methanone] |
| 95 | Cc1ccc(-c2ccc(C)cc2C(=O)N2CCC[C@@H](C)[C@H]2CNc2ccc(C(F)(F)F)cn2)nc1 [Example A118, ((2S,3R)-3-Methyl-2-(((5-(trifluoromethyl)pyridin-2-yl)amino)methyl)piperidin-1-yl)(5-methyl-2-(5-methylpyridin-2-yl)phenyl)methanone] |
| 55 | Cc1ccc(-n2nccn2)c(C(=O)N2CCC[C@@H](C)[C@H]2CNc2nc(C)cs2)c1 [Example A124, ((2S,3R)-3-Methyl-2-(((4-methylthiazol-2-yl)amino)methyl)piperidin-1-yl)(5-methyl-2-(2H-1,2,3-triazol-2-yl)phenyl)methanone] |
| 66 | Cc1ccc(-n2nccn2)c(C(=O)N2CCC[C@@H](C)[C@H]2CNc2ncc(Cl)cn2)c1 [Example A147, ((2S,3R)-2-(((5-Chloropyrimidin-2-yl)amino)methyl)-3-methylpiperidin-1-yl)(5-methyl-2-(2H-1,2,3-triazol-2-yl)phenyl)methanone] |
| 72 | Cc1ccc(-n2cccn2)c(C(=O)N2CCC[C@@H](C)[C@H]2CNc2ccc(C#N)cn2)c1 [Example A155, 6-((((2S,3R)-3-Methyl-1-(5-methyl-2-(1H-pyrazol-1-yl)benzoyl)piperidin-2-yl)methyl)amino)nicotinonitrile] |
| 37 | Cc1ccc(-n2cccn2)c(C(=O)N2CCC[C@@H](C)[C@H]2CNc2ccc(C(F)(F)F)nn2)n1 [Example A164, ((2S,3R)-3-Methyl-2-(((6-(trifluoromethyl)pyridazin-3-yl)amino)methyl)piperidin-1-yl)(6-methyl-3-(1H-pyrazol-1-yl)pyridin-2-yl)methanone] |
| 76 | Cc1ccc(-n2nccn2)c(C(=O)N2CCC[C@@H](C)[C@H]2CNc2ncc(F)cc2F)c1 [Example A172, ((2S,3R)-2-(((3,5-Difluoropyridin-2-yl)amino)methyl)-3-methylpiperidin-1-yl)(5-methyl-2-(2H-1,2,3-triazol-2-yl)phenyl)methanone] |
| 81 | Cc1ccc(-n2nccn2)c(C(=O)N2CCC[C@@H](C)[C@H]2CNc2ncc(Cl)cc2F)c1 [Example A173, ((2S,3R)-2-(((5-Chloro-3-fluoropyridin-2-yl)amino)methyl)-3-methylpiperidin-1-yl)(5-methyl-2-(2H-1,2,3-triazol-2-yl)phenyl)methanone] |
| 44 | Cc1ccc(-n2nccn2)c(C(=O)N2CCC[C@@H](C)[C@H]2CNc2nnc(C(F)(F)F)s2)n1 [Example A191, ((2S,3R)-3-Methyl-2-(((5-(trifluoromethyl)-1,3,4-thiadiazol-2-yl)amino)methyl)piperidin-1-yl)(6-methyl-3-(2H-1,2,3-triazol-2-yl)pyridin-2-yl)methanone] |
| 45 | Cc1ccc(-n2nccn2)c(C(=O)N2CCC[C@@H](C)[C@H]2CNc2ncc(C#N)cc2F)n1 [Example A193, 5-Fluoro-6-((((2S,3R)-3-methyl-1-(6-methyl-3-(2H-1,2,3-triazol-2-yl)picolinoyl)piperidin-2-yl)methyl)amino)nicotinonitrile] |
